Results on 22 compounds are retold here after patent US20140045746A1 (Merck Sharp & Dohme Corp., priority 2012, published 2014).

Data set [1] addresses T1, hGPR40 (Homo sapiens, UniProt O14842). The data set can be described thus: GPR40 Inositol Phosphate Turnover (IP1) Assay. The format is cell-based. Set-up: expressed in transfected cells; host or cells: HEK cells stably expressing the aequorin reporter.
Another data set is described as follows: Solubility in PBS pH 7. The format is physicochemical. The conditions noted are these: aqueous buffer; pH 7, PBS.
Data set [2] has as its target KV11.1 ion channel (hERG) (Homo sapiens, UniProt Q12809). The data set can be described thus: Binding to ion channel Kv11.1 (hERG).
Data set [3] concerns the target T1, hGPR40. The data set can be described thus: GPR40 FLIPR assay (agonist-induced calcium mobilization).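 Also: calcium mobilization in the cells read as fluorescence of fluo-4 AM loaded cells on FLIPR after compound addition, cells preloaded with dye 100 min at room temperature.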 The arrangement: expressed in transfected cells; host or cells: CHO cells stably expressing NFAT BLA (beta-lactamase). The conditions noted are these: GPR40/CHO NFAT BLA cells. The data set is classed as cell-based. On the technique in general: Calcium flux is commonly read through the fluorescence of an indicator in the cells.
Protocol: Human and mouse GPR40 stable cell-lines were generated in CHO cells stably expressing NFAT BLA (Beta-lactamase). […] The expression plasmids were transfected using lipofectamine (Life Technologies) following manufacturer's instructions. Stable cell-lines were generated following drug selection.
FLIPR (Fluorimetric Imaging Plate Reader, Molecular Devices) assays were performed to measure agonist-induced calcium mobilization of the stable clones. For the FLIPR assay, one day before assay, GPR40/CHO NFAT BLA cells were seeded into black-wall-clear-bottom 384-well plates (Costar) at 1.4×10e4 cells/20 μL medium/well. The cells were incubated with 20 μl/well of the assay buffer (HBSS, 0.1% BSA, 20 mM HEPES, 2.5 mM probenecid, pH 7.4) containing 8 μM fluo-4, AM, 0.08% pluronic acid at room temperature for 100 minutes. Fluorescence output was measured using FLIPR. Compounds were dissolved in DMSO and diluted to desired concentrations with assay buffer. 13.3 μL/well of compound solution was added.

[4] abbreviates: +0% human serum (Table A), read-out: Human GPR40 IP1, EC50, +0% human serum.
The mark [5] stands for this setting: +100% human serum (Table A), read-out: Human GPR40 IP1, EC50, +100% human serum.
Setting [6] is: HEK cells stably expressing human GPR40, 0% serum, read-out: hGPR40 IP1 EC50 (0% serum).

The term EC50 denotes the midpoint of the concentration-response curve. As usually defined, the solubility is how much of the substance goes into solution per volume. Read a high solubility as much dissolved substance. A word on the Ki: it is the equilibrium dissociation constant of an inhibitor or competing ligand from its target. Read a low Ki as higher affinity.

In brackets after ≈: the same amount, converted by molar mass.

T1 sequence (O14842 whole entry): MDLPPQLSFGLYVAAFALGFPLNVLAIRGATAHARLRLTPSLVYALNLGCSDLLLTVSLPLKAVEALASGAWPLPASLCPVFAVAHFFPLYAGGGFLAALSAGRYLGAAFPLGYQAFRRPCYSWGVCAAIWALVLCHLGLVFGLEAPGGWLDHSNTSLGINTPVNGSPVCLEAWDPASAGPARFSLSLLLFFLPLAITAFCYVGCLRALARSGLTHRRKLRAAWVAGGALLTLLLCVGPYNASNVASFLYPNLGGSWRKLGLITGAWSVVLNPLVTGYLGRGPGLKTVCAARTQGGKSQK
Sequence of KV11.1 ion channel (hERG) (Q12809 whole entry): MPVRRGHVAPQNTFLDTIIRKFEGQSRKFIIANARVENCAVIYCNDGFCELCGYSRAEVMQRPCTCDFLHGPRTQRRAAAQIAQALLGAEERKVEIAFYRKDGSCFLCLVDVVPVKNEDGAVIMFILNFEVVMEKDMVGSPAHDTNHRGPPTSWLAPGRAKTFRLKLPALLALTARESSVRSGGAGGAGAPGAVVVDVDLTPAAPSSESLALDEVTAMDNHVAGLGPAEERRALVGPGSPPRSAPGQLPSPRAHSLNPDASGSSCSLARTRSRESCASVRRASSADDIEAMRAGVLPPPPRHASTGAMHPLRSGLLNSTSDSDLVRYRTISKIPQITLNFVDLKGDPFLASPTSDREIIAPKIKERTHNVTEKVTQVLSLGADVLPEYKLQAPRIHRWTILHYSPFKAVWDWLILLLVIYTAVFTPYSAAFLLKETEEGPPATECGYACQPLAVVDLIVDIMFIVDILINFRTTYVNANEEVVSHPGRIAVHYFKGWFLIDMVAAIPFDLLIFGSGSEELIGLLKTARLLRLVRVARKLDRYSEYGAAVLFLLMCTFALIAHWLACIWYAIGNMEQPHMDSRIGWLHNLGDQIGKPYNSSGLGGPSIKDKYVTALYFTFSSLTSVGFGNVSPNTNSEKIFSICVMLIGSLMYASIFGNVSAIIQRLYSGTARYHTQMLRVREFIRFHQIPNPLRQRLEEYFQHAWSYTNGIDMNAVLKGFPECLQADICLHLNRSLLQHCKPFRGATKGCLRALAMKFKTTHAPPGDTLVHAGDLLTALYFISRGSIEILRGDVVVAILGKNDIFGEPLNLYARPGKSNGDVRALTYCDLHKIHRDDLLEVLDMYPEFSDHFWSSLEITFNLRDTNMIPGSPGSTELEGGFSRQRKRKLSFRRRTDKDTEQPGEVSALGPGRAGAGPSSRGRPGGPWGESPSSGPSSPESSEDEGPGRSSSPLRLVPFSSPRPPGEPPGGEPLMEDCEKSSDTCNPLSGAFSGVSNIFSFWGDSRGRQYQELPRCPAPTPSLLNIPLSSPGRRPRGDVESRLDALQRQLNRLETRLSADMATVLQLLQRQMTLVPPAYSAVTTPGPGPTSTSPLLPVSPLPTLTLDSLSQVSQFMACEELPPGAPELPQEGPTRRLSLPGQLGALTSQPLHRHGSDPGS

For the compound `Cc1cc(OCC2(C)COC2)cc(C)c1-c1cccc(COc2cc3c(cn2)[C@H]2[C@@H](C3)[C@@H]2C(=O)O)c1` (single isomer, unassigned) [Compound A-2], the figures for the EC50 at hGPR40 [1] (setting [4]) and on hGPR40 [1] (setting [5]) were 18 nM and 199 nM, respectively. In “Solubility in PBS pH 7”, this compound showed a solubility of 118 µM (≈ 57.3 µg/mL).
`Cc1cc(OCC2(C)COC2)cc(C)c1-c1ccc(F)c(COc2cc3c(cn2)[C@H]2[C@@H](C3)[C@@H]2C(=O)O)c1` (single isomer, unassigned) [Compound A-3]: the EC50 on hGPR40 [1] (setting [4]) stood at 9 nM; on hGPR40 [1] (setting [5]), 81 nM. Further, affinity in data set [2] was put at a Ki of 40200 nM. Also, the solubility in “Solubility in PBS pH 7” was 107 µM (≈ 53.9 µg/mL).
Turning to `Cc1cc(CCCC(C)(C)O)cc(C)c1-c1ccc(F)c(COc2cc3c(cn2)[C@H]2[C@@H](C3)[C@@H]2C(=O)O)c1` (single isomer, unassigned) [Compound A-4], the EC50 at hGPR40 [1] (setting [4]) was determined as 5 nM; at hGPR40 [1] (setting [5]), 124 nM. Moreover, the Ki in data set [2] was determined as 7500 nM. Besides, the solubility in the data set “Solubility in PBS pH 7” was 143 µM (≈ 72 µg/mL).
With `CS(=O)(=O)CCCOc1ccc(-c2ccc(F)c(COc3cc4c(cn3)[C@H]3[C@@H](C4)[C@@H]3C(=O)O)n2)c(C(F)(F)F)c1` [Compound 26-9, (5aR,6S,6aS)-3-((3-fluoro-6-(4-(3-(methyl-sulfonyl)-propoxy)-2-(trifluoromethyl)-phenyl)pyridin-2-yl)methoxy)-5,5a,6,6a-tetrahydrocyclo-propa[4,5]cyclopenta [1,2-c]pyridine-6-carboxylic acid], the EC50 turned out to be 53 nM on hGPR40 [1] (setting [6]) and 70 nM on hGPR40 [3].
Turning to `Cc1nc(N2CCN(S(C)(=O)=O)CC2)ccc1-c1ccc(F)c(COc2cc3c(cn2)[C@H]2[C@@H](C3)[C@@H]2C(=O)O)n1` [Compound 26-10, (5aR,6S,6aS)-3-((5-fluoro-2′-methyl-6′-(4-(methylsulfonyl)-piperazin-1-yl)-[2,3′-bipyridin]-6-yl)methoxy)-5,5a,6,6a-tetrahydrocyclo-propa[4,5]cyclopenta [1,2-c]pyridine-6-carboxylic acid], the EC50 at hGPR40 [1] (setting [6]) amounted to 300 nM; on hGPR40 [3] it was 90 nM.
As to `Cc1cccc(C)c1-c1cccc(COc2cc3c(cn2)C2[C@@H](C3)[C@@H]2C(=O)O)c1C` (stereo partly shown) [Compound 27-5, 4-(2,2′,6′-Trimethyl-biphenyl-3-ylmethoxy)-1,1a,6,6a-tetrahydro-3-aza-cyclopropa[a]indene-1-carboxylic acid], the EC50 stood at 6.7 nM at hGPR40 [1] (setting [6]) and 8.1 nM on hGPR40 [3].
With `Cc1c(COc2cc3c(cn2)C2C(C3)C2C(=O)O)cccc1-c1ccccc1C(F)(F)F` (stereo not shown) [Compound 27-6, 3-((2-methyl-2′-(trifluoro-methyl)-[1,1′-biphenyl]-3-yl)methoxy)-5,5a,6,6a-tetrahydrocyclopropa[4,5]-cyclopenta[1,2-c]pyridine-6-carboxylic acid], the EC50 came out at 85 nM on hGPR40 [1] (setting [6]) and 30 nM on hGPR40 [3].
With `Cc1cc(OCCCC(C)(C)C#N)cc(C)c1-c1cccc(COc2cc3c(cn2)C2[C@@H](C3)[C@@H]2C(=O)O)c1` (stereo partly drawn) [Compound 28-6, (5aR,6S,6aR)-3-((4′-((4-cyano-4-methylpentyl)oxy)-2′,6′-dimethyl-[1,1′-biphenyl]-3-yl)methoxy)-5,5a,6,6a-tetrahdrocyclopropa[4,5]cyclopenta[1,2-c]pyridine-6-carboxylic acid], the EC50 on hGPR40 [1] (setting [6]) is 66 nM; at hGPR40 [3] it was 24 nM.
The corresponding values for `Cc1cc(O[C@H]2C[C@@](C)(C#N)C2)cc(C)c1-c1cccc(COc2cc3c(cn2)C2[C@@H](C3)[C@@H]2C(=O)O)c1` (stereo partly drawn) [Compound 29-7, (5aR,6S,6aR)-3-((4′-((1s,3s)-3-cyano-3-methylcyclobutoxy)-2′,6′-dimethyl-[1,1′-biphenyl]-3-yl)methoxy)-5,5a,6,6a-tetrahydrocyclopropa[4,5]cyclopenta[1,2-c]pyridine-6-carboxylic acid] are 21 nM and 54 nM.
The corresponding values for `Cc1cc(OCCCS(C)(=O)=O)cc(C)c1-c1ccc(F)c(C(C)Oc2cc3c(cn2)[C@H]2[C@@H](C3)[C@@H]2C(=O)O)c1` (stereo partly drawn) [Compound 30-5, (5aR,6S,6aS)-3-(1-(4-fluoro-2′,6′-dimethyl-4′-(3-(methylsulfonyl)propoxy)-[1,1′-biphenyl]-3-yl)ethoxy)-5,5a,6,6a-tetrahydrocyclopropa[4,5]cyclopenta[1,2-c]pyridine-6-carboxylic acid] are 300 nM and 45 nM.
`Cc1nc(N2CC(CS(C)(=O)=O)C2)ccc1-c1ccc(F)c(COc2cc3c(cn2)[C@H]2[C@@H](C3)[C@@H]2C(=O)O)c1` [Compound 31-8]: the EC50 was found to be 28 nM at hGPR40 [1] (setting [6]) and 51 nM on hGPR40 [3].
With `Cc1nc(N2CCC(CS(C)(=O)=O)C2)ccc1-c1ccc(F)c(COc2cc3c(cn2)C2C(C3)C2C(=O)O)c1` (stereo not shown) [Compound 31-9, 3-((2-fluoro-5-(2-methyl-6-(3-((methylsulfonyl)-methyl)pyrrolidin-1-yl)pyridin-3-yl)benzyl)oxy)-5,5a,6,6a-tetrahydrocyclopropa[4,5]cyclopenta[1,2-c]pyridine-6-carboxylic acid], the EC50 was found to be 69 nM at hGPR40 [1] (setting [6]) and 76 nM at hGPR40 [3].
Consider `Cc1nc(N2CCOCC2)nc(C)c1-c1ccc(F)c(COc2cc3c(cn2)C2C(C3)C2C(=O)O)c1` (stereo not shown) [Compound 31-10, 3-((5-(4,6-dimethyl-2-morpholinopyrimidin-5-yl)-2-fluorobenzyl)oxy)-5,5a,6,6a-tetrahydrocyclopropa[4,5]cyclopenta[1,2-c]pyridine-6-carboxylic acid], for which the EC50 was found to be 45 nM at hGPR40 [1] (setting [6]) and 86 nM on hGPR40 [3].
Turning to `Cc1nc(N2CCC3(C=Cc4ccccc43)CC2)nc(C)c1-c1ccc(F)c(COc2cc3c(cn2)C2C(C3)C2C(=O)O)c1` (stereo not shown) [Compound 31-11, 3-((5-(4,6-dimethyl-2-(spiro[indene-1,4′-piperidin]-1′-yl)pyrimidin-5-yl)-2-fluorobenzyl)oxy)-5,5a,6,6a-tetrahydrocyclopropa[4,5]cyclopenta[1,2-c]pyridine-6-carboxylic acid], the EC50 on hGPR40 [1] (setting [6]) is 180 nM; at hGPR40 [3], 45 nM.
On to `Cc1nc(N2CCC(NS(C)(=O)=O)C2)ccc1-c1ccc(F)c(COc2cc3c(cn2)C2C(C3)C2C(=O)O)c1` (stereo not shown) [Compound 31-12, 3-((2-fluoro-5-(2-methyl-6-(3-(methylsulfonamido)-pyrrolidin-1-yl)pyridin-3-yl)benzyl)oxy)-5,5a,6,6a-tetrahydrocyclopropa[4,5]cyclopenta[1,2-c]pyridine-6-carboxylic acid], for which the EC50 on hGPR40 [1] (setting [6]) was 51 nM; at hGPR40 [3], 44 nM.
With `Cc1nc(N2CCN(S(C)(=O)=O)CC2)ccc1-c1ccc(F)c(COc2cc3c(cn2)[C@H]2[C@@H](C3)[C@@H]2C(=O)O)c1` [Compound 31-13, (5aR,6S,6aS)-3-((2-fluoro-5-(2-methyl-6-(4-(methylsulfonyl)piperazin-1-yl)pyridin-3-yl)benzyl)oxy)-5,5a,6,6a-tetrahydrocyclopropa[4,5]cyclopenta[1,2-c]pyridine-6-carboxylic acid], the EC50 at hGPR40 [1] (setting [6]) stood at 32 nM; on hGPR40 [3] it was 69 nM.
Turning to `CCc1nc2ccc(F)c(F)c2n1-c1cccc(COc2cc3c(cn2)[C@H]2[C@@H](C3)[C@@H]2C(=O)O)c1C` [Compound 32-9, (5aR,6S,6aS)-3-((3-(2-ethyl-6,7-difluoro-1H-benzo[d]imidazol-1-yl)-2-methylbenzyl)oxy)-5,5a,6,6a-tetrahydrocyclopropa[4,5]cyclopenta[1,2-c]pyridine-6-carboxylic acid], the EC50 at hGPR40 [1] (setting [6]) came to 4.9 nM; at hGPR40 [3], 30 nM.
In the case of `Cc1cccc(C)c1-c1cccc(COc2cc3c(cn2)[C@H]2[C@@H](C3)[C@@H]2C(=O)O)c1C` [Compound A-1], the EC50 at hGPR40 [1] (setting [4]) was found to be 6 nM; at hGPR40 [1] (setting [5]), 81 nM. Moreover, the affinity in data set [2], expressed as Ki, was 40000 nM. In the data set “Solubility in PBS pH 7”, this compound showed a solubility of 73 µM (≈ 29.2 µg/mL).
Consider `Cc1cccc(C)c1-c1cccc(COc2ccc3c(c2)C[C@H]2[C@H](C(=O)O)[C@@H]32)c1C` [Compound B-1, reference compound], for which the EC50 was determined as 69 nM at hGPR40 [1] (setting [4]) and 322 nM on hGPR40 [1] (setting [5]). The same compound came in with an inhibitory constant (Ki) in data set [2] of 6000 nM. In the data set “Solubility in PBS pH 7”, the solubility amounted to 56 µM (≈ 22.3 µg/mL).
Regarding `Cc1cc(OCC2(C)COC2)cc(C)c1-c1cccc(COc2ccc3c(c2)C[C@H]2[C@H](C(=O)O)[C@@H]32)c1` [Compound B-2, reference compound], the EC50 is 70 nM at hGPR40 [1] (setting [4]) and 816 nM at hGPR40 [1] (setting [5]). Besides, the affinity in data set [2], expressed as Ki, was 8600 nM. The solubility in “Solubility in PBS pH 7” stood at 21 µM (≈ 10.2 µg/mL).
`Cc1cc(OCC2(C)COC2)cc(C)c1-c1ccc(F)c(COc2ccc3c(c2)C[C@H]2[C@H](C(=O)O)[C@@H]32)c1` [Compound B-3, reference compound]: the EC50 on hGPR40 [1] (setting [4]) came out at 31 nM; on hGPR40 [1] (setting [5]), 286 nM. For the same compound, in data set [2], the Ki came out at 7800 nM. The compound further gave a solubility in the data set “Solubility in PBS pH 7” of 49 µM (≈ 24.6 µg/mL).
In the case of `Cc1cc(CCCC(C)(C)O)cc(C)c1-c1ccc(F)c(COc2ccc3c(c2)C[C@H]2[C@H](C(=O)O)[C@@H]32)c1` [Compound B-4, reference compound], the EC50 at hGPR40 [1] (setting [4]) is 100 nM; at hGPR40 [1] (setting [5]), 348 nM. Moreover, the solubility in “Solubility in PBS pH 7” amounted to 66 µM (≈ 33.2 µg/mL).
